US20090143285A1, “TARGET PROTEIN AND TARGET GENE FOR DRUG DISCOVERY AND SCREENING METHOD” (REVERSE PROTEOMICS RESEARCH INSTITUTE CO., LTD., priority 2005, published 2009)
Entries after “also recorded” stand apart in the source; their conditions may differ. Where two headings read alike, the source gives them in different places.

How the values were obtained:
FLJ35914-derived protein = target: T1, FLJ35914-derived protein (Homo sapiens, UniProt Q9HB65, DEL362-362); assay: SEC/MS interaction analysis, FLJ35914-derived protein (ELL3); format: binding; details: TSKgel super SW2000 micro-LC column (1.0 mm ID×30 mm); presence vs absence of protein; data not shown
T1 construct: His-tag (N); made in house; host or cells: Escherichia coli BL21star(DE3)pLysS
T1 sequence (Q9HB65 with tags, fused parts or gaps DEL362-362): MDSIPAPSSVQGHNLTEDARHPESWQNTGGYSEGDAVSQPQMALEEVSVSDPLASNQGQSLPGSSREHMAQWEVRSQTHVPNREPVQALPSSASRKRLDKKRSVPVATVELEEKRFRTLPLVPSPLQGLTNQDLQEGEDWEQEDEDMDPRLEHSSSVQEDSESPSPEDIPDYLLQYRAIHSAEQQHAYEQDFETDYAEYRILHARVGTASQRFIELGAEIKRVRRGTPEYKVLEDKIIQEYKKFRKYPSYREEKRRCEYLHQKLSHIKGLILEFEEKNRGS
Description: (§1) The specific procedures are shown below.

FLJ36526-derived protein = target: T2, FLJ36526-derived protein (Homo sapiens, UniProt Q9UNZ2, D290N/L361F); assay: SEC/MS interaction analysis, FLJ36526-derived protein (NSFL1 (p97) cofactor (p47)); format: binding; details: TSKgel super SW2000 micro-LC column (1.0 mm ID×30 mm); presence vs absence of protein; data not shown
T2 construct: His-tag (N); made in house; host or cells: Escherichia coli BL21star(DE3)pLysS
T2 sequence (Q9UNZ2 1-370 D290N/L361F): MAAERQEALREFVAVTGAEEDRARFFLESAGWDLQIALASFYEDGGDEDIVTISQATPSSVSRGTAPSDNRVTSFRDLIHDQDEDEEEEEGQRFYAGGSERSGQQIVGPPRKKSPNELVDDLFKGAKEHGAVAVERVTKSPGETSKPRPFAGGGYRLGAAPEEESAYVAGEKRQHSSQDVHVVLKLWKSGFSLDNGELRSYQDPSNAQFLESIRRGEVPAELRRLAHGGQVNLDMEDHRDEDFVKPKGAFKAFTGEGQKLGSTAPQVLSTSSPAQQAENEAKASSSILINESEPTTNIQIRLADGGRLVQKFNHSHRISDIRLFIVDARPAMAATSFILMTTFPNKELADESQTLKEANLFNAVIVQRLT
Description: as §1

FLJ39553-derived protein = target: T3, FLJ39553-derived protein (Homo sapiens, UniProt Q6P6B1, N326S); assay: SEC/MS interaction analysis, FLJ39553-derived protein (hypothetical protein FLJ39553); format: binding; details: TSKgel super SW2000 micro-LC column (1.0 mm ID×30 mm); presence vs absence of protein; data not shown
T3 construct: His-tag (N); made in house; host or cells: Escherichia coli BL21star(DE3)pLysS
T3 sequence (Q6P6B1 1-374 N326S): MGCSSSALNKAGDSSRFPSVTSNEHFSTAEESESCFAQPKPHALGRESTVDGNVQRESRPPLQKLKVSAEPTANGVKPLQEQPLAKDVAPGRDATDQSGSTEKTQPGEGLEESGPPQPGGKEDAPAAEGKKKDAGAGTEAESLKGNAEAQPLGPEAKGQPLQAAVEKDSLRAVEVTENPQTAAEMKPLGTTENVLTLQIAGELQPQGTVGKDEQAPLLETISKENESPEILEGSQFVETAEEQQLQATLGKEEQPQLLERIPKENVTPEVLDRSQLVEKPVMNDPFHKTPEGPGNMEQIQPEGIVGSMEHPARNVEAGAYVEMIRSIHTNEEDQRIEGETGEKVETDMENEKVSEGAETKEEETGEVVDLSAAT
Description: (§2) To analyze the interactions between commonly used drugs and proteins expressed from human full-length cDNA clones while keeping both the proteins and the compounds in non-modified, non-immobilized state, size exclusion chromatography (SEC) and mass analysis were used in combination. The specific procedures are shown below.
(§3) The compound-protein mixture prepared in step 1 was subjected to chromatography using an SEC column, the compound and the protein were separated by SEC, and the compound that interacted with the bound compound or protein contained in the protein fraction was analyzed using a mass analyzer.
(§4) Protein concentrations were measured using BCA Protein Assay (PIERCE), in consideration of the purity calculated by SDS-PAGE.
Mass analysis was performed using LCQ DECA XP (Thermoelectron) or Q-TOF micro (Micromass), equipped with an ESI probe. […]
In the 384-well spin column method, Unifilter 100 (Whatman), packed with 10 μL (dry volume) of Bio-Gel P6 (BIO-RAD) and swollen with milliQ water, was used as the SEC column. […] 2-μL of mass analysis samples were injected using an autosampler at 2-minute intervals; the mass spectral intensity of the compound was measured to retrieve the spectral intensity of the pharmaceutical compound contained in the SEC spin column filtrate (protein fraction eluted from SEC).

[1] = tested on: FLJXXXXX-derived proteins; assay: SEC/MS spin column interaction analysis of FLJXXXXX-derived proteins and various compounds (Tables 30-1 to 30-4); format: binding, human
FLJ38531-derived protein [2] = target: T4, FLJ38531-derived protein (Homo sapiens, UniProt Q9BVM4); assay: SEC/MS interaction analysis, FLJ38531-derived protein (hypothetical protein BC004360); format: binding
T4 construct: His-tag (N); made in house; host or cells: Escherichia coli BL21star(DE3)pLysS
T4 sequence (Q9BVM4 1-153): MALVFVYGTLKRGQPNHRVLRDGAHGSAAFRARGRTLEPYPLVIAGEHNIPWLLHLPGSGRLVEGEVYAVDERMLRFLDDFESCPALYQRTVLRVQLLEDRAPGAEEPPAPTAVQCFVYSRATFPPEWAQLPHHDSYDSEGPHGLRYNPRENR
Description: as §2, §3, §4
Mass analysis was performed using LCQ DECA XP (Thermoelectron) or Q-TOF micro (Micromass), equipped with an ESI probe. The LC pump used was Agilent 1100 (Yokogawa Analytical Systems), and the autosampler used was HTC-PAL (CTC Analytics) equipped with a cooling stacker. The SEC column used was a micro-LC column or a 384-well spin column. […]
In the 384-well spin column method, Unifilter 100 (Whatman), packed with 10 μL (dry volume) of Bio-Gel P6 (BIO-RAD) and swollen with milliQ water, was used as the SEC column. […] The SEC spin column was mounted on an acetonitrile-aliquoted 384-well U-bottom plate and centrifuged; the SEC spin column filtrate, which is a protein fraction, was recovered in 50% acetonitrile. The protein precipitate produced by the acetonitrile was removed via centrifugation and filtration for deproteinization; the resulting filtrate was concentrated by centrifugal concentration and re-dissolved in 10 μL of 50% methanol to obtain a mass analysis sample. The mobile phase supplied to the mass analyzer was 0.1% formic acid/50% methanol solution in the positive ion mode, and 0.1% ammonia/50% methanol solution in the negative ion mode; these mobile phases were used at a flow rate of 40 μL/min. 2-μL of mass analysis samples were injected using an autosampler at 2-minute intervals; the mass spectral intensity of the compound was measured to retrieve the spectral intensity of the pharmaceutical compound contained in the SEC spin column filtrate (protein fraction eluted from SEC).

FLJ38531-derived protein [3] = target: T4, FLJ38531-derived protein; assay: Biacore dissociation constant (KD) measurement, FLJ38531-derived protein; format: binding; details: FLJ38531-derived protein (SEQ ID NO 13)
Description: This washing operation was repeated as required.

Row | Structure (SMILES) | interaction judged from mass chromatogram of the compound (elution from SEC micro-LC column) (FLJ35914-derived protein) | interaction judged from mass chromatogram of the compound (elution from SEC micro-LC column) (FLJ36526-derived protein) | interaction judged from mass chromatogram of the compound (elution from SEC micro-LC column) (FLJ39553-derived protein) | FLJ No of the derived protein with which the compound was judged to exhibit a concentration-dependent interaction [1] | spectrum intensity of the compound in the SEC spin column filtrate (FLJ38531-derived protein [2]; compound 12.5 μM, protein 0 μM) | spectrum intensity of the compound in the SEC spin column filtrate (FLJ38531-derived protein [2]; compound 12.5 μM, protein 5 μM) | spectrum intensity of the compound in the SEC spin column filtrate (FLJ38531-derived protein [2]; compound 12.5 μM, protein 10 μM) | spectrum intensity of the compound in the SEC spin column filtrate (FLJ38531-derived protein [2]; compound 12.5 μM, protein 25 μM) | spectrum intensity of the compound in the SEC spin column filtrate (FLJ38531-derived protein [2]; compound 25 μM, protein 0 μM) | spectrum intensity of the compound in the SEC spin column filtrate (FLJ38531-derived protein [2]; compound 25 μM, protein 5 μM) | spectrum intensity of the compound in the SEC spin column filtrate (FLJ38531-derived protein [2]; compound 25 μM, protein 10 μM) | spectrum intensity of the compound in the SEC spin column filtrate (FLJ38531-derived protein [2]; compound 25 μM, protein 25 μM) | spectrum intensity of the compound in the SEC spin column filtrate (FLJ38531-derived protein [2]; compound 62.5 μM, protein 0 μM) | spectrum intensity of the compound in the SEC spin column filtrate (FLJ38531-derived protein [2]; compound 62.5 μM, protein 5 μM) | spectrum intensity of the compound in the SEC spin column filtrate (FLJ38531-derived protein [2]; compound 62.5 μM, protein 10 μM) | spectrum intensity of the compound in the SEC spin column filtrate (FLJ38531-derived protein [2]; compound 62.5 μM, protein 25 μM) | interaction judged from spectrum intensity of the compound in the SEC spin column filtrate (protein fraction eluted from SEC) (FLJ38531-derived protein [2]; spin column method, doses of both compound and protein varied) | FLJ No of the derived protein with which the compound was judged to exhibit a concentration-dependent interaction ([1]; SEC spin column filtrate, spectral intensity increased with doses of compound and protein) | Kd (FLJ38531-derived protein [3])
1 | C/C1=C2N=C(/C=C3N=C(/C(C)=C4\[N-][C@@](C)([C@@H]5N=C1[C@](C)(CCC(=O)NC[C@@H](C)OP(=O)([O-])O[C@H]1[C@@H](O)[C@@H](n6cnc7cc(C)c(C)cc76)O[C@@H]1CO)[C@H]5CC(N)=O)[C@@](C)(CC(N)=O)[C@@H]4CCC(N)=O)[C@@](C)(CC(N)=O)[C@@H]\3CCC(N)=O)C(C)(C)[C@@H]/2CCC(N)=O.[Co+3].[OH-] [hydroxocobalamin] | there was an interaction | there was an interaction | there was an interaction | FLJ35914; also recorded: FLJ36526; also recorded: FLJ39553 | – | – | – | – | – | – | – | – | – | – | – | – | – | – | –
2 | O=C(O)c1cc(/N=N/c2ccc(S(=O)(=O)Nc3ccccn3)cc2)ccc1O [sulfasalazine] | – | – | – | – | 59203 | 261679 | 686531 | 2048630 | 53384 | 401351 | 946518 | 2600573 | 179387 | 688076 | 1418687 | 3155516 | concentration-dependent interaction | FLJ38531 | 8.9 µM
